The record followed here is article PMC8093080 (Biochemistry, 2020).

In this experiment the target is T1, trp RNA-binding attenuation protein (TRAP) (Geobacillus stearothermophilus, UniProt Q9X6J6).
T1 sequence (Q9X6J6 1-74): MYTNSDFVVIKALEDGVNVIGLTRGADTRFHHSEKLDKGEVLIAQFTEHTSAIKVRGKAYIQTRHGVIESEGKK
Briefly: ITC at […]°C in phosphate buffer.

`N[C@@H](Cc1c[nH]c2ccccc12)C(=O)O` [Trp, tryptophan] yielded a Kd of 115 ± 3 nM.
